Like-named read-outs stand apart in the source and are kept apart here.
Columns and labels:
[1] = system: Plasmodium berghei (ANKA strain); assay: Peters' 4-day suppressive test in P. berghei-infected mice; format: in vivo, Plasmodium berghei in Balb/C mice; conditions: for reduction in parasitemia: 4 daily doses
Procedure: Antimalarial activity was expressed as the percentage of parasite multiplication inhibition.
Antimalarial activity was assessed in vivo in the P. berghei rodent malaria model according to Peters’ 4-day suppressive test in P. berghei-infected (ANKA strain), 5–6 week-old Balb/C mice (males and females) weighing 23 ± 5 g; parasitemia kinetics were evaluated following treatment [2]. […] The donor mice were anesthetized with a 5 mg/kg xylazine and 50 mg/kg ketamine cocktail; blood was then collected via intracardiac route and 100 uL of 5 × 10^6 P. berghei ANKA-parasitised parasitized erythrocytes per experimental mouse were inoculated. Mouse infection was checked one day later by thin smear blood test and Giemsa staining.

[2] = system: Plasmodium falciparum FCB-2 (chloroquine-resistant) strain; assay: In vitro antiplasmodial activity, [3H]hypoxanthine incorporation, FCB-2 strain; format: cell-based; conditions: for RI (resistance index): IC50 FCB-2 (resistant strain)/IC50 NF-54 (sensitive strain); for antiplasmodial activity (in words): P. falciparum FCB-2 and NF-54 strains, compared to diosgenone or parent
Procedure: (§1) A 10 mg/mL stock solution was prepared. […] A 50 μL sample was extracted from this solution and adjusted to 1,000 μL with RPMI-1640 without hypoxanthine until a final 500 μg/mL concentration was reached. The P. falciparum FcB-2 (Colombia) and NF54 (The Netherlands) strains were used for assessing anti-malarial activity.
(§2) Trager and Jensen’s method was used for culturing strains [24, 25]. The methods described by Desjardins et al. [26] were used for evaluating the structural analogs’ in vitro antiplasmodial activity, with some modifications. […] 1.0 µCi/mL of [3H] hypoxanthine (MP Biomedicals, Santa Ana, CA, USA) was added to each well and the plates were then incubated for 48 h at 37 °C in 5% CO2, 5% O2 in a balanced N2 atmosphere. Parasite DNA was harvested and radioactivity was determined by automatic TDCR liquid scintillation counter plate (Chameleon, Hidex Oy, Finland). Experiments were repeated twice with two or three replicates each. A nonlinear regression sigmoidal dose-response (variable slope) model was used to estimate concentration inhibiting 50% growth (IC50) values for each derivative.

[3] = system: Plasmodium falciparum NF-54 strain; assay: In vitro antiplasmodial activity, [3H]hypoxanthine incorporation, NF-54 strain; format: cell-based; conditions: 48 h, read-out: IC50 μM ± SD NF-54
Procedure: as §1, §2

[4] = system: Plasmodium falciparum FCB-2 (chloroquine-resistant) strain; design: method as in doi:10.1016/S0040-4020(98)00632-2, PMID 11807967; conditions: reported earlier; cited from earlier work
[5] = Cytotoxicity, MTT colorimetric test; format: cell-based, human; conditions: human
Procedure: (§3) Steroidal derivatives’ cytotoxicity regarding the HepG2-A16 cell line was evaluated by colorimetric test using 3-(4,5-dimethylthiazolyl-2)-2,5-diphenyltetrazolium bromide (MTT), as described by Mosmann [28]. […] An aliquot of each derivative dilution (100 μL, 1,000, 100, 10 and 1 μg/mL) was then added to the wells in triplicate. […] The DMSO diluent agent was evaluated in complete medium and negative controls (untreated cells) were included. Absorbance was measured at 550 nm and statistical Prism software version 5.0 (GraphPad Software Inc., La Jolla, CA, USA) was used for calculating toxic concentration (CC50). Amphotericin B was used as positive control in this assay.

[6] = system: HepG2-A16 human hepatoma cells; assay: Cytotoxicity, MTT colorimetric test; format: cell-based; conditions: for SI (selectivity index): CC50 HepG2/IC50 parasite FCB-2
Procedure: as §3

[7] = Plasmodium falciparum, 48 h, P. falciparum FCB-2 chloroquine-resistant strain, 48 h, read-out: IC50 μM ± SD FCB-2
[8] = P. falciparum NF-54 chloroquine-sensitive strain

Which reduction of parasitemia ([1]; 5 mg/kg oral, second day of treatment) does the source give for `CCN(CC)CCCC(C)Nc1ccnc2cc(Cl)ccc12` (stereo not drawn) [CQ, chloroquine, reference compound] here?
The reduction of parasitemia was 100.0%.

And the IC50 ([2]; Plasmodium falciparum, 48 h, read-out: IC50 μM ± SD FCB-2)?
The IC50 was 0.157 ± 0.01 µM.

What about the IC50 ([2]; Plasmodium falciparum, read-out: IC50 in the FCB-2 strain) of the same molecule?
Its IC50 is 0.158 µM.

What about the IC50 [3] of the same molecule?
Its IC50 is 0.02 ± 0.005 µM.

With `C[C@@H]1CC[C@@]2(OC1)O[C@H]1C[C@H]3[C@@H]4CCC5=CC(=O)CC[C@]5(C)[C@H]4CC[C@]3(C)[C@H]1[C@@H]2C` [Compound 2, (25R)-4-Spirosten-3-one] as the molecule, how does the “in vivo effect on parasites (in words)” value ([1]; 100 mg/kg oral) read?
Its value is “no decrease in the amount of parasites”.

And the “parasitaemia (parasitized erythrocytes)” value ([1]; 100 mg/kg oral, fifth day post treatment, vehicle controls 36.0%)?
The value was 50.0%.

What about the IC50 [2, 7] of the same molecule?
The IC50 was 27.9 ± 5.5 µM.

What about the “antiplasmodial activity against FcB-2 chloroquine-resistant strains (in words)” value [4] of the same molecule?
The value was “have antiplasmodial activity”.

And the CC50 at 48 h [5]?
Its CC50 at 48 h is 265 µM.

And the IC50 [3, 8]?
The IC50 was 35.4 ± 2.2 µM.

Which “RI (resistance index)” value [2] does the source give for `CC(=O)O[C@H]1CC2C3CCC4=CC(=O)CC[C@]4(C)C3CC[C@]2(C)[C@H]1[C@H](C)C(=O)CC[C@@H](C)CO` (stereo partly drawn) [Compound 3] here?
Its value is 0.6.

And the IC50 ([2]; P. falciparum FCB-2 chloroquine-resistant strain, 48 h, read-out: IC50 μM ± SD FCB-2)?
The IC50 was 21.35 ± 0.2 µM.

And the IC50 [2, 7]?
Its IC50 is 21.4 µM.

What about the “antiplasmodial activity against FcB-2 chloroquine-resistant strains (in words)” value [4] of the same molecule?
The value was “have antiplasmodial activity”.

What about the CC50 at 48 h [5] of the same molecule?
The CC50 at 48 h was 60 µM.

What about the “SI (selectivity index)” value [6] of the same molecule?
Its value is 2.8.

And the IC50 [3, 8]?
Its IC50 is 33 ± 0.8 µM.

Which results are given for `C[C@@H](CO)CCC(=O)[C@@H](C)[C@H]1[C@@H](O)CC2C3CCC4=CC(=O)CC[C@]4(C)C3CC[C@@]21C` (stereo partly drawn) [Compound 4]?
RI (resistance index) [2]: 0.9; IC50 [2, 7]: 223 ± 12.3 µM; antiplasmodial activity against FcB-2 chloroquine-resistant strains (in words) [4]: have antiplasmodial activity; CC50 at 48 h [5]: 2150 µM; SI (selectivity index) [6]: 9.6; IC50 [3, 8]: 248 ± 5.3 µM

Which reduction in parasitemia ([1]; 100 mg/kg oral) does the source give for `CC1CCC2(OC1)OC1(O)CC3C4CCC56OC5C(=O)CCC6(C)C4CCC3(C)C1C2C` [Compound 14, (25R)-4,5-Epoxy-spirostan-16α-hydroxy-3-one] here?
The reduction in parasitemia was 36.7%.

And the “RI (resistance index)” value [2]?
The value was 1.2.

What about the IC50 [2, 7] of the same molecule?
The IC50 was 10.1 ± 1.3 µM.

What about the melting point of the same molecule?
The melting point was 145 to 147 °C.

What about the CC50 at 48 h [5] of the same molecule?
Its CC50 at 48 h is 153 µM.

What about the “SI (selectivity index)” value [6] of the same molecule?
The value was 15.2.

And the IC50 [3, 8]?
Its IC50 is 8.5 ± 2.3 µM.

Which “antiplasmodial activity (in words)” value [2] does the source give for `CC(=O)OC1CC[C@@]2(C)C(=CC[C@H]3[C@@H]4C[C@@H]5O[C@]6(CC[C@@H](C)CO6)[C@@H](C)[C@@H]5[C@@]4(C)CC[C@@H]32)C1` (stereo partly drawn) [Compound 16, (25R)-3-Acetoxy-spirostan-5-ene] here?
The value was “neither active”.

What about the IC50 [2, 7] of the same molecule?
The IC50 was over 438 µM.

And the melting point?
The melting point was 182 to 184 °C.

And the CC50 at 48 h [5]?
The CC50 at 48 h was over 2190 µM.

What about the “cytotoxicity (in words)” value [6] of the same molecule?
The value was “nor toxic”.

What about the IC50 [3, 8] of the same molecule?
The IC50 was over 438 µM.

What does the source list for `C[C@@H]1CC[C@@]2(OC1)O[C@H]1C[C@H]3[C@@H]4CC5OC56CC(O)CC[C@]6(C)[C@H]4CC[C@]3(C)[C@H]1[C@@H]2C` (stereo partly drawn) [Compound 17, (25R)-5,6-Epoxy-spirostan-3-ol]?
RI (resistance index) [2]: 2.2; antiplasmodial activity (in words) [2]: neither active; IC50 [2, 7]: > 409 µM; melting point: 97 to 99 °C; CC50 at 48 h [5]: > 2050 µM; cytotoxicity (in words) [6]: nor toxic; IC50 [3, 8]: 184 µM

What does the source list for `C[C@@H]1CC[C@@]2(OC1)O[C@H]1C[C@H]3[C@@H]4CC(=O)C5=CC(=O)CC[C@]5(C)[C@H]4CC[C@]3(C)[C@H]1[C@@H]2C` [Compound 18, (25R)-4-Spirosten-3,6-dione]?
reduction in parasitemia ([1]; 100 mg/kg oral): 35.0%; RI (resistance index) [2]: 1.2; antiplasmodial activity (in words) [2]: more active than diosgenone; IC50 [2, 7]: 11.3 ± 1.6 µM; melting point: 200 to 202 °C; CC50 at 48 h [5]: 192 µM; SI (selectivity index) [6]: 16.9; IC50 [3, 8]: 9.8 ± 1 µM

What does the source list for `CC(=O)OC1C[C@H]2[C@@H]3CCC4=CC(O)CC[C@]4(C)[C@H]3CC[C@]2(C)[C@H]1[C@H](C)C(O)CC[C@@H](C)CO` (stereo partly drawn) [Compound 24, (25R)-16-Acetoxy-4-cholesten-3,22,26-triol]?
RI (resistance index) [2]: 0.9; IC50 [2, 7]: 95 ± 7.3 µM; melting point: 144 to 146 °C; CC50 at 48 h [5]: 306 µM; SI (selectivity index) [6]: 3.2; IC50 [3, 8]: 101 ± 9.9 µM

Reference: article PMC6270258, “Diosgenone Synthesis, Anti-Malarial Activity and QSAR of Analogues of This Natural Product” (Molecules, 2013)
